# Numbered stars: 1 amine (or outer) side, 2 acyl side, 3 side chain; on linkers, the order of the positions; unused ones are H or OH. Square brackets hold non-standard residues; d marks the D form. Side chains are listed from the residue outwards. Peptide text beside a SMILES is read from it. * marks the point of attachment. DOTA(Lu)NH(CH2)6NHCOCH2 = O=C(CN1CCN2CCN3CCN(CC1)CC(=O)[O][Lu]([O]C(=O)C2)[O]C(=O)C3)NCCCCCCNC(=O)C*; X6 = O=C(CN1CCN2CCN3CCN(CC1)CC(=O)[O][Lu]([O]C(=O)C2)[O]C(=O)C3)NCCOCCOCCOCCNC(=O)C*; X17 = O=C(CN1CCN2CCN3CCN(CC1)CC(=O)[O][Lu]([O]C(=O)C2)[O]C(=O)C3)NCCNC(=O)C*; DOTA(Lu) = O=C1CN2CCN3CCN(CC(=O)*)CCN(CC2)CC(=O)[O][Lu]([O]1)[O]C(=O)C3; X5 = O=C(CN1CCN2CCN3CCN(CC1)CC(=O)[O][Lu]([O]C(=O)C2)[O]C(=O)C3)NCC*; Ala(piperidin-4-yl) = O=C([C@H](CC1CCN([*:3])CC1)N[*:1])[*:2]; dTrp(βS-Me) = C[C@@H](c1c[nH]c2ccccc12)[C@@H](N)C(=O)O; βMeTrp(2S,3R) = C[C@H](c1c[nH]c2ccccc12)[C@H](N)C(=O)O; dTrp(5-OMe) = COc1ccc2[nH]cc(C[C@@H](N)C(=O)O)c2c1; dTrp(4-Me) = Cc1cccc2[nH]cc(C[C@@H](N)C(=O)O)c12; dTrp(5-Cl) = N[C@H](Cc1c[nH]c2ccc(Cl)cc12)C(=O)O; dTrp(5-Me) = Cc1ccc2[nH]cc(C[C@@H](N)C(=O)O)c2c1; Phe(4-CH2NH2) = NCc1ccc(C[C@H](N)C(=O)O)cc1; X2 = O=C([C@H](CCC1CNC1)N[*:1])[*:2]; Lys(iPr) = CC(C)NCCCC[C@H](N)C(=O)O; mTyr = N[C@@H](Cc1cccc(O)c1)C(=O)O; 4Pal = N[C@@H](Cc1ccncc1)C(=O)O; Cha = N[C@@H](CC1CCCCC1)C(=O)O; NMehCys = CN[C@@H](CCS)C(=O)O; NMeK = CN[C@@H](CCCCN)C(=O)O; NMeDap = CN[C@@H](CN)C(=O)O; NMeS = CN[C@@H](CO)C(=O)O; Ahx = NCCCCCC(=O)O
# Target: SSTR2 (Homo sapiens, UniProt P30874)
# Assay: SSTR binding affinity by radioligand binding competition assay ([125I]-Tyr11-Somatostatin, membrane extracts)
# Details: radioligand competition, [125I]-Tyr11-Somatostatin 0.1 nM, membrane extracts; Ki from IC50 by Cheng Prusoff
# Sequence of SSTR2 (P30874 whole entry): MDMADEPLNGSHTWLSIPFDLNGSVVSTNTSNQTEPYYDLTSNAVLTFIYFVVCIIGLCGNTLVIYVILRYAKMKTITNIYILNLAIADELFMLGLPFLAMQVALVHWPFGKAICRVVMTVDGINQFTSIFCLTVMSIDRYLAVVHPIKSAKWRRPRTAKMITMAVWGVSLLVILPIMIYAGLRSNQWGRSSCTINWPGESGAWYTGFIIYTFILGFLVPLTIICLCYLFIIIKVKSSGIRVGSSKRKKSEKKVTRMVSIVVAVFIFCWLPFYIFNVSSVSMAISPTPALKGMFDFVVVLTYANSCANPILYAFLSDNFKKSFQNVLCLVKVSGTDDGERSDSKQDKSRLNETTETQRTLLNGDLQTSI
row,Compound,SSTR2 Ki
1,COc1ccc2[nH]cc(C[C@H]3NC(=O)[C@H](Cc4ccc(O)cc4)NC(=O)[C@H](CCSCC(=O)NCCCCCCNC(=O)CN4CCN5CCN6CCN(CC4)CC(=O)[O][Lu]([O]C(=O)C5)[O]C(=O)C6)N(C)C(=O)[C@H](Cc4ccccc4)NC(=O)[C@H]([C@@H](C)O)NC(=O)[C@H](CC4CCNCC4)NC3=O)c2c1 [RB-0006076] (cyclo(F[NMehCys](DOTA(Lu)NH(CH2)6NHCOCH2)Y[dTrp(5-OMe)][Ala(piperidin-4-yl)]T)),FALSE

# Same assay, conditions: radioligand competition, [125I]-Tyr11-Somatostatin 0.1 nM, membrane extracts; Ki from IC50 by Cheng Prusoff; read-out: SSTR2 Ki
row,Compound,Ki
1,C[C@@H](O)[C@@H]1NC(=O)[C@H](CC2CCNCC2)NC(=O)[C@@H]([C@@H](C)c2c[nH]c3ccccc23)NC(=O)[C@H](Cc2ccc(O)cc2)NC(=O)[C@H](CCCCNC(=O)CN2CCN3CCN4CCN(CC2)CC(=O)[O][Lu]([O]C(=O)C3)[O]C(=O)C4)N(C)C(=O)[C@H](Cc2cccc(O)c2)NC1=O [RB-0005985] (cyclo([NMeK](DOTA(Lu))Y[dTrp(βS-Me)][Ala(piperidin-4-yl)]T[mTyr])),< 1 nM
2,C[C@@H](O)[C@@H]1NC(=O)[C@H](CC2CCNCC2)NC(=O)[C@@H]([C@@H](C)c2c[nH]c3ccccc23)NC(=O)[C@H](Cc2ccc(O)cc2)NC(=O)[C@H](CCSCC(=O)NCCNC(=O)CN2CCN3CCN4CCN(CC2)CC(=O)[O][Lu]([O]C(=O)C3)[O]C(=O)C4)N(C)C(=O)[C@H](Cc2ccccc2)NC1=O [RB-0005990] (cyclo(F[NMehCys](X17)Y[dTrp(βS-Me)][Ala(piperidin-4-yl)]T)),< 1 nM
3,C[C@@H](O)[C@@H]1NC(=O)[C@H](CC2CCNCC2)NC(=O)[C@H](Cc2c[nH]c3ccccc23)NC(=O)[C@H](Cc2ccc(O)cc2)NC(=O)[C@H](CCSCC(=O)NCCOCCOCCOCCNC(=O)CN2CCN3CCN4CCN(CC2)CC(=O)[O][Lu]([O]C(=O)C3)[O]C(=O)C4)N(C)C(=O)[C@H](Cc2ccccc2)NC1=O [RB-0005992] (cyclo(F[NMehCys](X6)YW[Ala(piperidin-4-yl)]T)),3.33 to 10 nM
4,C[C@@H](O)[C@@H]1NC(=O)[C@H](CC2CCNCC2)NC(=O)[C@@H]([C@@H](C)c2c[nH]c3ccccc23)NC(=O)[C@H](Cc2ccc(O)cc2)NC(=O)[C@H](CCSCC(=O)NCCOCCOCCOCCNC(=O)CN2CCN3CCN4CCN(CC2)CC(=O)[O][Lu]([O]C(=O)C3)[O]C(=O)C4)N(C)C(=O)[C@H](Cc2ccccc2)NC1=O [RB-0005994] (cyclo(F[NMehCys](X6)Y[dTrp(βS-Me)][Ala(piperidin-4-yl)]T)),< 1 nM
5,C[C@@H](O)[C@@H]1NC(=O)[C@H](Cc2ccc(CN)cc2)NC(=O)[C@@H]([C@@H](C)c2c[nH]c3ccccc23)NC(=O)[C@H](Cc2ccc(O)cc2)NC(=O)[C@H](CCSCC(=O)NCCCCCCNC(=O)CN2CCN3CCN4CCN(CC2)CC(=O)[O][Lu]([O]C(=O)C3)[O]C(=O)C4)N(C)C(=O)[C@H](Cc2ccccc2)NC1=O [RB-0006009] (cyclo(F[NMehCys](DOTA(Lu)NH(CH2)6NHCOCH2)Y[dTrp(βS-Me)][Phe(4-CH2NH2)]T)),1 to 3.33 nM
6,CC(C)NCCCC[C@@H]1NC(=O)[C@@H]([C@@H](C)c2c[nH]c3ccccc23)NC(=O)[C@H](Cc2ccc(O)cc2)NC(=O)[C@H](CCSCC(=O)NCCCCCCNC(=O)CN2CCN3CCN4CCN(CC2)CC(=O)[O][Lu]([O]C(=O)C3)[O]C(=O)C4)N(C)C(=O)[C@H](Cc2ccccc2)NC(=O)[C@H]([C@@H](C)O)NC1=O [RB-0006011] (cyclo(F[NMehCys](DOTA(Lu)NH(CH2)6NHCOCH2)Y[dTrp(βS-Me)][Lys(iPr)]T)),1 to 3.33 nM
7,"C[C@H](c1c[nH]c2ccccc12)[C@@H]1NC(=O)[C@H](Cc2ccc(O)cc2)NC(=O)[C@H](CCSCC(=O)NCCCCCCNC(=O)CN2CCN3CCN4CCN(CC2)CC(=O)[O][Lu]([O]C(=O)C3)[O]C(=O)C4)N(C)C(=O)[C@H](Cc2ccccc2)NC(=O)[C@H]([C@@H](C)O)NC(=O)[C@H](CCCCN)NC1=O [RB-0006019] (cyclo(F[NMehCys](DOTA(Lu)NH(CH2)6NHCOCH2)Y[βMeTrp(2S,3R)]KT))",< 1 nM
8,"C[C@H](c1c[nH]c2ccccc12)[C@@H]1NC(=O)[C@H](Cc2ccc(O)cc2)NC(=O)[C@H](CCCCNC(=O)CN2CCN3CCN4CCN(CC2)CC(=O)[O][Lu]([O]C(=O)C3)[O]C(=O)C4)N(C)C(=O)[C@H](Cc2ccccc2)NC(=O)[C@H]([C@@H](C)O)NC(=O)[C@H](CC2CCNCC2)NC1=O [RB-0006069] (cyclo(F[NMeK](DOTA(Lu))Y[βMeTrp(2S,3R)][Ala(piperidin-4-yl)]T))",3.33 to 10 nM
9,Cc1cccc2[nH]cc(C[C@H]3NC(=O)[C@H](Cc4ccc(O)cc4)NC(=O)[C@H](CCSCC(=O)NCCCCCCNC(=O)CN4CCN5CCN6CCN(CC4)CC(=O)[O][Lu]([O]C(=O)C5)[O]C(=O)C6)N(C)C(=O)[C@H](Cc4ccccc4)NC(=O)[C@H]([C@@H](C)O)NC(=O)[C@H](CC4CCNCC4)NC3=O)c12 [RB-0006073] (cyclo(F[NMehCys](DOTA(Lu)NH(CH2)6NHCOCH2)Y[dTrp(4-Me)][Ala(piperidin-4-yl)]T)),3.33 to 10 nM
10,Cc1ccc2[nH]cc(C[C@H]3NC(=O)[C@H](Cc4ccc(O)cc4)NC(=O)[C@H](CCSCC(=O)NCCCCCCNC(=O)CN4CCN5CCN6CCN(CC4)CC(=O)[O][Lu]([O]C(=O)C5)[O]C(=O)C6)N(C)C(=O)[C@H](Cc4ccccc4)NC(=O)[C@H]([C@@H](C)O)NC(=O)[C@H](CC4CCNCC4)NC3=O)c2c1 [RB-0006074] (cyclo(F[NMehCys](DOTA(Lu)NH(CH2)6NHCOCH2)Y[dTrp(5-Me)][Ala(piperidin-4-yl)]T)),3.33 to 10 nM
11,C[C@@H](O)[C@@H]1NC(=O)[C@H](CC2CCNCC2)NC(=O)[C@@H](Cc2c[nH]c3ccc(Cl)cc23)NC(=O)[C@H](Cc2ccc(O)cc2)NC(=O)[C@H](CCSCC(=O)NCCCCCCNC(=O)CN2CCN3CCN4CCN(CC2)CC(=O)[O][Lu]([O]C(=O)C3)[O]C(=O)C4)N(C)C(=O)[C@H](Cc2ccccc2)NC1=O [RB-0006075] (cyclo(F[NMehCys](DOTA(Lu)NH(CH2)6NHCOCH2)Y[dTrp(5-Cl)][Ala(piperidin-4-yl)]T)),1 to 3.33 nM
12,C[C@@H](O)[C@@H]1NC(=O)[C@H](CC2CCNCC2)NC(=O)[C@@H]([C@@H](C)c2c[nH]c3ccccc23)NC(=O)[C@H](Cc2ccc(O)cc2)NC(=O)[C@H](COCCNC(=O)CN2CCN3CCN4CCN(CC2)CC(=O)[O][Lu]([O]C(=O)C3)[O]C(=O)C4)N(C)C(=O)[C@H](Cc2ccccc2)NC1=O [RB-0006095] (cyclo(F[NMeS](X5)Y[dTrp(βS-Me)][Ala(piperidin-4-yl)]T)),< 1 nM
13,C[C@@H](O)[C@@H]1NC(=O)[C@H](CCC2CNC2)NC(=O)[C@@H]([C@@H](C)c2c[nH]c3ccccc23)NC(=O)[C@H](Cc2ccc(O)cc2)NC(=O)[C@H](CCCCNC(=O)CN2CCN3CCN4CCN(CC2)CC(=O)[O][Lu]([O]C(=O)C3)[O]C(=O)C4)N(C)C(=O)[C@H](Cc2ccccc2)NC1=O [RB-0006128] (cyclo(F[NMeK](DOTA(Lu))Y[dTrp(βS-Me)][X2]T)),< 1 nM
14,COc1ccc(C[C@@H]2NC(=O)[C@H](CCCCNC(=O)CN3CCN4CCN5CCN(CC3)CC(=O)[O][Lu]([O]C(=O)C4)[O]C(=O)C5)N(C)C(=O)[C@H](Cc3ccccc3)NC(=O)[C@H]([C@@H](C)O)NC(=O)[C@H](CC3CCNCC3)NC(=O)[C@@H]([C@@H](C)c3c[nH]c4ccccc34)NC2=O)cc1 [RB-0006139] (cyclo(F[NMeK](DOTA(Lu))Y(Me)[dTrp(βS-Me)][Ala(piperidin-4-yl)]T)),33.3 to 100 nM
15,C[C@@H](O)[C@@H]1NC(=O)[C@H](CC2CCNCC2)NC(=O)[C@@H]([C@@H](C)c2c[nH]c3ccccc23)NC(=O)[C@H](Cc2ccc(O)cc2)NC(=O)[C@H](CNC(=O)[C@H](CC(=O)O)NC(=O)CCCCCNC(=O)CN2CCN3CCN4CCN(CC2)CC(=O)[O][Lu]([O]C(=O)C3)[O]C(=O)C4)N(C)C(=O)[C@H](Cc2ccccc2)NC1=O [RB-0006158] (cyclo(F[NMeDap]([Asp-Ahx-DOTA(Lu)])Y[dTrp(βS-Me)][Ala(piperidin-4-yl)]T)),1 to 3.33 nM
16,C[C@@H](O)[C@@H]1NC(=O)[C@H](CC2CCNCC2)NC(=O)[C@@H]([C@@H](C)c2c[nH]c3ccccc23)NC(=O)[C@H](Cc2ccc(O)cc2)NC(=O)[C@H](CNC(=O)[C@H](CC(=O)O)NC(=O)CN2CCN3CCN4CCN(CC2)CC(=O)[O][Lu]([O]C(=O)C3)[O]C(=O)C4)N(C)C(=O)[C@H](Cc2ccccc2)NC1=O [RB-0006160] (cyclo(F[NMeDap]([Asp-DOTA(Lu)])Y[dTrp(βS-Me)][Ala(piperidin-4-yl)]T)),10 to 33.3 nM
17,C[C@@H](O)[C@@H]1NC(=O)[C@H](CC2CCNCC2)NC(=O)[C@@H]([C@@H](C)c2c[nH]c3ccccc23)NC(=O)[C@H](Cc2ccc(O)cc2)NC(=O)[C@H](CCCCNC(=O)CN2CCN3CCN4CCN(CC2)CC(=O)[O][Lu]([O]C(=O)C3)[O]C(=O)C4)N(C)C(=O)[C@H](CC2CCCCC2)NC1=O [RB-0006162] (cyclo([Cha][NMeK](DOTA(Lu))Y[dTrp(βS-Me)][Ala(piperidin-4-yl)]T)),1 to 3.33 nM
18,C[C@@H](O)[C@@H]1NC(=O)[C@H](CC2CCNCC2)NC(=O)[C@@H]([C@@H](C)c2c[nH]c3ccccc23)NC(=O)[C@H](Cc2ccc(O)cc2)NC(=O)[C@H](CCCCNC(=O)CN2CCN3CCN4CCN(CC2)CC(=O)[O][Lu]([O]C(=O)C3)[O]C(=O)C4)N(C)C(=O)[C@H](CO)NC1=O [RB-0006166] (cyclo([NMeK](DOTA(Lu))Y[dTrp(βS-Me)][Ala(piperidin-4-yl)]TS)),33.3 to 100 nM
19,C[C@@H](O)[C@@H]1NC(=O)[C@H](CC2CCNCC2)NC(=O)[C@@H]([C@@H](C)c2c[nH]c3ccccc23)NC(=O)[C@H](Cc2ccc(O)cc2)NC(=O)[C@H](CCCCNC(=O)CN2CCN3CCN4CCN(CC2)CC(=O)[O][Lu]([O]C(=O)C3)[O]C(=O)C4)N(C)C(=O)[C@H](Cc2ccncc2)NC1=O [RB-0006170] (cyclo([4Pal][NMeK](DOTA(Lu))Y[dTrp(βS-Me)][Ala(piperidin-4-yl)]T)),3.33 to 10 nM
